PubChem BioAssay AID330 (DTP/NCI, 2004)
Toxic doses and inconclusive results are not listed. How the source made its calls: active means survival T/C of 150% or more; inactive means T/C below 125% in these data.

Test system: P388 leukemia ip, CD2F1 mice, survival T/C
Assay: NCI In Vivo Anticancer Drug Screen. Data for tumor model P388 Leukemia (intraperitoneal) in CD2F1 (CDF1) mice
Conditions: endpoint: median survival time, higher = longer survival
Outline: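 Mice carrying the transplanted tumor received test compound or vehicle. Survival was recorded in each group, and the value is the treated-group measurement divided by that of the vehicle-treated control group.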

[1] = dose: 60.0 mg/kg/injection, schedule: Q01DX005 (ip), vehicle: Klucel (hydroxypropylcellulose) (HPC)
[2] = dose: 120.0 mg/kg/injection, schedule: Q01DX005 (ip), vehicle: Klucel (hydroxypropylcellulose) (HPC)
[3] = dose: 240.0 mg/kg/injection, schedule: Q01DX005 (ip), vehicle: Klucel (hydroxypropylcellulose) (HPC)
[4] = dose: 100.0 mg/kg/injection, schedule: Q04DX003 (ip), vehicle: Klucel (hydroxypropylcellulose) (HPC)
[5] = dose: 200.0 mg/kg/injection, schedule: Q04DX003 (ip), vehicle: Klucel (hydroxypropylcellulose) (HPC)
[6] = dose: 400.0 mg/kg/injection, schedule: Q04DX003 (ip), vehicle: Klucel (hydroxypropylcellulose) (HPC)
[7] = dose: 60.0 mg/kg/injection, schedule: Q01DX005 (ip), vehicle: saline with Tween-80
[8] = dose: 120.0 mg/kg/injection, schedule: Q01DX005 (ip), vehicle: saline with Tween-80
[9] = dose: 240.0 mg/kg/injection, schedule: Q01DX005 (ip), vehicle: saline with Tween-80
[10] = dose: 50.0 mg/kg/injection, schedule: Q01DX009 (ip), vehicle: Klucel (hydroxypropylcellulose) (HPC)
[11] = dose: 100.0 mg/kg/injection, schedule: Q01DX009 (ip), vehicle: Klucel (hydroxypropylcellulose) (HPC)
[12] = dose: 200.0 mg/kg/injection, schedule: Q01DX009 (ip), vehicle: Klucel (hydroxypropylcellulose) (HPC)
[13] = dose: 50.0 mg/kg/injection, schedule: Q01DX005 (ip), vehicle: saline with Tween-80
[14] = dose: 100.0 mg/kg/injection, schedule: Q01DX005 (ip), vehicle: saline with Tween-80
[15] = dose: 200.0 mg/kg/injection, schedule: Q01DX005 (ip), vehicle: saline with Tween-80
[16] = dose: 100.0 mg/kg/injection, schedule: Q01DX001 (ip), vehicle: Klucel (hydroxypropylcellulose) (HPC)
[17] = dose: 200.0 mg/kg/injection, schedule: Q01DX001 (ip), vehicle: Klucel (hydroxypropylcellulose) (HPC)
[18] = dose: 400.0 mg/kg/injection, schedule: Q01DX001 (ip), vehicle: Klucel (hydroxypropylcellulose) (HPC)
[19] = dose: 50.0 mg/kg/injection, schedule: Q01DX009 (ip), vehicle: saline
[20] = dose: 100.0 mg/kg/injection, schedule: Q04DX002 (ip), vehicle: saline with Tween-80
[21] = dose: 200.0 mg/kg/injection, schedule: Q04DX002 (ip), vehicle: saline with Tween-80
[22] = dose: 400.0 mg/kg/injection, schedule: Q04DX002 (ip), vehicle: saline with Tween-80

Measured: T/C

COc1ccc(CCC(=O)O)c(C(CC(=O)O)C(=O)O)c1OS(=O)(=O)c1ccc(C)cc1 (stereo not given)
inactive: dose: 50.0 mg/kg/injection, schedule: Q01DX009 (ip), vehicle: saline with Tween-80 94 % of control | dose: 100.0 mg/kg/injection, schedule: Q01DX009 (ip), vehicle: saline with Tween-80 105 % of control | dose: 200.0 mg/kg/injection, schedule: Q01DX009 (ip), vehicle: saline with Tween-80 97 % of control

COc1ccc(C(c2cc3c(cc2O)OCO3)N2CCN(C(c3ccc(OC)c(OC)c3)c3cc4c(cc3O)OCO4)CC2)cc1OC (stereo not given)
inactive: [1] 89 % of control | [2] 90 % of control | [3] 105 % of control

C=COC(=O)CCCCCCCC
inactive: [4] 103 % of control | [5] 105 % of control | [6] 95 % of control

CCOC(=O)NC1CC2c3ccccc3C1c1ccccc12 (stereo not given)
inactive: [7] 101 % of control | [8] 101 % of control | [9] 107 % of control

CCCCCCCCCCCCCCCC(=O)N(CCC#N)C(C)(C)CCC(C)(C)N(CCC#N)C(=O)CCCCCCCCCCCCCCC
inactive: dose: 12.5 mg/kg/injection, schedule: Q01DX009 (ip), vehicle: Klucel (hydroxypropylcellulose) (HPC) 99 % of control | dose: 12.5 mg/kg/injection, schedule: Q04DX003 (ip), vehicle: Klucel (hydroxypropylcellulose) (HPC) 88 % of control | dose: 25.0 mg/kg/injection, schedule: Q01DX009 (ip), vehicle: Klucel (hydroxypropylcellulose) (HPC) 98 % of control | dose: 25.0 mg/kg/injection, schedule: Q04DX003 (ip), vehicle: Klucel (hydroxypropylcellulose) (HPC) 88 % of control | [10] 97 % of control | [11] 91 % of control | [12] 91 % of control | [5] 94 % of control

CCC[CH2][Sn]([CH2]CCC)([CH2]CCC)[CH2]CC[N+](C)(C)C
inactive: dose: 0.78 mg/kg/injection, schedule: Q01DX009 (ip), vehicle: saline 105 % of control | dose: 1.56 mg/kg/injection, schedule: Q01DX009 (ip), vehicle: saline 105 % of control | dose: 3.12 mg/kg/injection, schedule: Q01DX009 (ip), vehicle: saline 101 % of control

[C-]#[N+]C1(c2ccccc2)C2CC3CC(C2)CC1C3 (stereo not given)
inactive: [4] 106 % of control | [5] 100 % of control | [6] 106 % of control

OCCCCCOCCOCCOCCOCCOCCCCCO
inactive: [13] 101 % of control | [14] 101 % of control | [15] 96 % of control

CCOC(=O)c1cc2nc(C(C)C)n(Cc3ccccc3)c2cc(C(=O)OCC)c1=O
inactive: [7] 103 % of control | [8] 97 % of control | [9] 89 % of control

CC(=O)Nc1nc(Cl)c2[nH]cnc2n1
inactive: dose: 25.0 mg/kg/injection, schedule: Q01DX005 (ip), vehicle: Klucel (hydroxypropylcellulose) (HPC) 98 % of control | dose: 50.0 mg/kg/injection, schedule: Q01DX005 (ip), vehicle: Klucel (hydroxypropylcellulose) (HPC) 98 % of control | dose: 100.0 mg/kg/injection, schedule: Q01DX005 (ip), vehicle: Klucel (hydroxypropylcellulose) (HPC) 102 % of control | dose: 200.0 mg/kg/injection, schedule: Q01DX005 (ip), vehicle: Klucel (hydroxypropylcellulose) (HPC) 112 % of control

O=C(Nc1ccc(Cl)cc1)Nc1nnc2nc(C(C(=O)c3cccc([N+](=O)[O-])c3Cl)c3nc4nnc(NC(=O)Nc5ccc(Cl)cc5)n4[nH]c3=O)c(=O)[nH]n12
inactive: [7] 110 % of control | [8] 101 % of control | [9] 95 % of control

O=C(Nc1ccccn1)c1ccccc1S(=O)(=O)O
inactive: [13] 102 % of control | [14] 104 % of control | [15] 99 % of control

S=c1nc(-c2ccccc2)[nH]c(=S)[nH]1
inactive: [16] 99 % of control | [17] 106 % of control | [18] 92 % of control

O=S1(c2ccccc2)=NP(N2CC2)(N2CC2)=NP(N2CC2)(N2CC2)=N1 (stereo not given)
inactive: dose: 18.75 mg/kg/injection, schedule: Q04DX003 (ip), vehicle: saline 99 % of control | dose: 37.5 mg/kg/injection, schedule: Q04DX003 (ip), vehicle: saline 93 % of control | dose: 75.0 mg/kg/injection, schedule: Q04DX003 (ip), vehicle: saline 120 % of control

Cc1cccc(-c2nc(=S)nc(N)s2)c1
inactive: dose: 100.0 mg/kg/injection, schedule: Q01DX001 (ip), vehicle: saline with Tween-80 95 % of control | dose: 200.0 mg/kg/injection, schedule: Q01DX001 (ip), vehicle: saline with Tween-80 93 % of control

NC(=S)N/N=C/c1c(-c2ccccc2)nc2n1CCS2
inactive: [16] 100 % of control | [17] 104 % of control | [18] 109 % of control

CN(C)CCCNc1cc(/C=C/c2cccc3ccccc23)nc2ccccc12
inactive: dose: 12.5 mg/kg/injection, schedule: Q01DX009 (ip), vehicle: saline 91 % of control | dose: 25.0 mg/kg/injection, schedule: Q01DX009 (ip), vehicle: saline 92 % of control | [19] 92 % of control

CC12CC3CC(O)(C1)CC(O)(C3)C2
inactive: [19] 100 % of control | dose: 100.0 mg/kg/injection, schedule: Q01DX009 (ip), vehicle: saline 100 % of control | dose: 200.0 mg/kg/injection, schedule: Q01DX009 (ip), vehicle: saline 102 % of control

COc1ccc(C(=O)C(=O)c2ccc(OC)cc2)cc1
inactive: [1] 99 % of control | [2] 98 % of control | [3] 100 % of control

CCOC(=O)/C=C/C(=O)NNS(=O)(=O)CC(N)C(=O)O (stereo not given)
inactive: dose: 100.0 mg/kg/injection, schedule: Q04DX003 (ip), vehicle: acid diluted with saline 105 % of control | dose: 200.0 mg/kg/injection, schedule: Q04DX003 (ip), vehicle: acid diluted with saline 109 % of control

O=C(CC(=NCCN=C(CC(=O)c1ccccc1)c1ccccc1)c1ccccc1)c1ccccc1.[Cu]
inactive: [20] 98 % of control | [21] 96 % of control | [22] 95 % of control

O=C(O)c1ccccc1C(=O)c1ccccn1
inactive: [10] 99 % of control | [11] 97 % of control | [12] 97 % of control

O=C1CSC(c2cccnc2)N1CCN1C(=O)CSC1c1cccnc1 (stereo not given)
inactive: [7] 105 % of control | [20] 112 % of control | [8] 105 % of control | [21] 112 % of control | [9] 101 % of control | [22] 109 % of control

CCCCCCCCCC(=O)CCCCC
inactive: dose: 100.0 mg/kg/injection, schedule: Q01DX009 (ip), vehicle: other 115 % of control | dose: 200.0 mg/kg/injection, schedule: Q01DX009 (ip), vehicle: other 115 % of control | dose: 400.0 mg/kg/injection, schedule: Q01DX009 (ip), vehicle: other 90 % of control

CC(C)(C)SC(=O)CC(O)(c1ccccc1)c1ccccc1
inactive: [4] 115 % of control | [5] 106 % of control | [6] 95 % of control

Nc1n[nH]c(CCCCc2nc(N)n[nH]2)n1
inactive: [1] 97 % of control | [2] 99 % of control | [3] 98 % of control
